In patent US20090221642A1, “MUSCARINIC RECEPTOR AGONISTS, COMPOSITIONS, METHODS OF TREATMENT THEREOF, AND PROCESSES FOR PREPARATION THEREOF-176” (AstraZeneca AB, priority 2008, published 2009) one finds EC50 data, which are given here for 22 compounds.

The test deals with T1, hM1 (human Muscarinic receptor subtype 1) (Homo sapiens, UniProt P11229).
T1 construct: expressed in transfected cells; host or cells: CHO cells (Chinese hamster ovary cells, ATCC)
T1 sequence (P11229 1-460): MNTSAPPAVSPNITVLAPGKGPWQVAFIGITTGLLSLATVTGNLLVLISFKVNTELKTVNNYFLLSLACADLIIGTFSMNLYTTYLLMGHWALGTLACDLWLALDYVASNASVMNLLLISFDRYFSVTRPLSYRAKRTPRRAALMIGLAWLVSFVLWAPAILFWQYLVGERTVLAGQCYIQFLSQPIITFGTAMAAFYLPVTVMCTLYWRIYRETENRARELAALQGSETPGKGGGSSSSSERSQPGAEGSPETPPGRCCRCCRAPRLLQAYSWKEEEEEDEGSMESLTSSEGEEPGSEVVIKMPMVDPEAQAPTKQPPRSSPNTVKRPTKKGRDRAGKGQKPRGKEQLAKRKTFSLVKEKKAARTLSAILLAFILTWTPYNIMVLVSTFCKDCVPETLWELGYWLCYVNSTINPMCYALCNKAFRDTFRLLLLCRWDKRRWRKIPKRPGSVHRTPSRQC
Briefly: Human M1 calcium mobilization FLIPR assay. It is filed as cell-based. The conditions noted are these: hM1 expressed in CHO cells, intracellular Ca2+ release, read-out: hM1 EC50. The procedure: Human M1, rat M1, human M3 and human M5 Calcium Mobilization FLIPR™ Assay
The compound activity in the present invention (EC50 or IC50) is measured using a 384 plate-based imaging assay that monitors drug induced intracellular Ca^2+ release in whole cells. Activation of hM1 (human Muscarinic receptor subtype 1, gene bank access NM_000738), rM1 (rat Muscarinic receptor subtype 1, gene bank access NM_080773), hM3 (human Muscarinic receptor subtype 3, gene bank access NM_000740NM_000740) and hM5 (human Muscarinic receptor subtype 5, gene bank access NM_0121258), receptors expressed in CHO cells (Chinese hamster ovary cells, ATCC) is quantified in a Molecular Devices FLIPR II™ instrument as an increase in fluorescent signal. Inhibition of hM3 and hM5 by compounds is determined by the decrease in fluorescent signal in response to 2 nM acetylcholine activation.
Prior to experiment, the cell culture medium is removed from the plates by inversion. […] Plates are incubated at 37° C. for 60 minutes prior to start the experiment. The incubation is terminated by washing the cells four times in assay buffer, leaving a residual 25 μl buffer per well. Cell plates are then transferred to the FLIPR, ready for compound additions.
The day of experiment, acetylcholine and compounds are diluted in assay buffer in three-fold concentration range (10 points serial dilution) for addition by FLIPR instrument. For all calcium assays, a baseline reading is taken for 10 seconds followed by the addition of 12.5 μl of compounds, resulting in a total well volume of 37.5 μl. Data is collected every second for 60 pictures and then every 6 seconds for 20 pictures prior to the addition of agonist. For hM3 and hM5, before agonist addition, a second baseline reading is taken for 10 seconds followed by the addition of 12.5 μl of agonist or buffer, producing a final volume of 50 μl. After agonist stimulation, the FLIPR continues to collect data every second for 60 pictures and then every 6 seconds for 20 pictures. The fluorescence emission is read using filter 1 (emission 510-570 nm) by the FLIPR on board CCD camera.
Calcium mobilization output data are calculated as the maximal relative fluorescence unit (RFU) minus the minimal value for both compound and agonist reading frame (except for hM1 and rM1 using only the maximal RFU). Data are analyzed using sigmoidal fits of a non-linear curve-fitting program (XLfit version 4.2.2 Excel add-in version 4.2.2 build 18 math 1Q version 2.1.2 build 18). All pEC50 and plC50 values are reported as arithmetic means ±standard error of mean of ‘n’ independent experiments.

The structures appear in SMILES notation.

For the compound `COC(=O)N1CCC(C)(N2CCC(n3c(=O)[nH]c4ccccc43)CC2)C1` (racemic) [Example 2, methyl 3-methyl-3-(4-(2-oxo-2,3-dihydro-1H-benzo[d]imidazol-1-yl)piperidin-1-yl)pyrrolidine-1-carboxylate], the EC50 (usually the concentration that produces a half-maximal response) amounted to 13 nM.

For the compound `CCOC(=O)N1CCC(C)(N2CCC(n3c(=O)[nH]c4cc(F)ccc43)CC2)C1` (single isomer, unassigned) [Example 6, ethyl 3-(4-(5-fluoro-2-oxo-2,3-dihydro-1H-benzo[d]imidazol-1-yl)piperidin-1-yl)-3-methylpyrrolidine-1-carboxylate], the EC50 was below 1.4 nM.

In the case of `CCOC(=O)N1CCC(C)(N2CCC(n3c(=O)[nH]c4cc(C)ccc43)CC2)C1` (single isomer, unassigned) [Example 12, ethyl 3-methyl-3-(4-(5-methyl-2-oxo-2,3-dihydro-1H-benzo[d]imidazol-1-yl)piperidin-1-yl)pyrrolidine-1-carboxylate], the EC50 came to 10.1 nM.

As to `Cc1ccc2c(c1)[nH]c(=O)n2C1CCN(C2(C)CCN(C(=O)OC(C)C)C2)CC1` (single isomer, unassigned) [Example 14, isopropyl 3-methyl-3-(4-(5-methyl-2-oxo-2,3-dihydro-1H-benzo[d]imidazol-1-yl)piperidin-1-yl)pyrrolidine-1-carboxylate], the 50% effective concentration (EC50) turned out to be 48.3 nM.

Regarding `CC#CCOC(=O)N1CCC(C)(N2CCC(n3c(=O)[nH]c4cc(C)ccc43)CC2)C1` (single isomer, unassigned) [Example 21, but-2-ynyl 3-methyl-3-(4-(5-methyl-2-oxo-2,3-dihydro-1H-benzo[d]imidazol-1-yl)piperidin-1-yl)pyrrolidine-1-carboxylate], the EC50 came out at 12.5 nM.

Turning to `CC#CCOC(=O)N1CCC(C)(N2CCC(n3c(=O)[nH]c4cc(F)ccc43)CC2)C1` (single isomer, unassigned) [Example 22, but-2-ynyl 3-(4-(5-fluoro-2-oxo-2,3-dihydro-1H-benzo[d]imidazol-1-yl)piperidin-1-yl)-3-methylpyrrolidine-1-carboxylate], the EC50 was found to be 2.8 nM.

`COC(=O)N1CCC(C)(N2CCC(n3c(=O)[nH]c4cc(F)ccc43)CC2)C1` (single isomer, unassigned) [Example 23, methyl 3-(4-(5-fluoro-2-oxo-2,3-dihydro-1H-benzo[d]imidazol-1-yl)piperidin-1-yl)-3-methylpyrrolidine-1-carboxylate]: the 50% effective concentration (EC50) amounted to 9.4 nM.

Regarding `C#CCOC(=O)N1CCC(C)(N2CCC(n3c(=O)[nH]c4cc(F)ccc43)CC2)C1` (single isomer, unassigned) [Example 25, prop-2-ynyl 3-(4-(5-fluoro-2-oxo-2,3-dihydro-1H-benzo[d]imidazol-1-yl)piperidin-1-yl)-3-methylpyrrolidine-1-carboxylate], the EC50 was determined as 1.8 nM.

`Cc1ccc2[nH]c(=O)n(C3CCN(C4(C)CCN(C(=O)OCCF)C4)CC3)c2c1` (single isomer, unassigned) [Example 26, 2-fluoroethyl 3-methyl-3-(4-(6-methyl-2-oxo-2,3-dihydro-1H-benzo[d]imidazol-1-yl)piperidin-1-yl)pyrrolidine-1-carboxylate]: the EC50 worked out at 7.8 nM.

Consider `Cc1ccc2c(c1)[nH]c(=O)n2C1CCN(C2(C)CCN(C(=O)OCCF)C2)CC1` (single isomer, unassigned) [Example 27, 2-fluoroethyl 3-methyl-3-(4-(5-methyl-2-oxo-2,3-dihydro-1H-benzo[d]imidazol-1-yl)piperidin-1-yl)pyrrolidine-1-carboxylate], for which the EC50 was determined as 10.8 nM.

For `CC1(N2CCC(n3c(=O)[nH]c4ccccc43)CC2)CCN(C(=O)OCCF)C1` (single isomer, unassigned) [Example 31, 2-fluoroethyl 3-methyl-3-(4-(2-oxo-2,3-dihydro-1H-benzo[d]imidazol-1-yl)piperidin-1-yl)pyrrolidine-1-carboxylate], the EC50 came to 13.1 nM.

In the case of `CC1(N2CCC(n3c(=O)[nH]c4ccccc43)CC2)CCN(C(=O)OCCF)C1` (single isomer, unassigned) [Example 32, 2-fluoroethyl 3-methyl-3-(4-(2-oxo-2,3-dihydro-1H-benzo[d]imidazol-1-yl)piperidin-1-yl)pyrrolidine-1-carboxylate], the EC50 is 52.1 nM.

For the compound `CC#CCOC(=O)N1CCC(C)(N2CCC(n3c(=O)[nH]c4ccccc43)CC2)C1` (single isomer, unassigned) [Example 33, but-2-ynyl 3-methyl-3-(4-(2-oxo-2,3-dihydro-1H-benzo[d]imidazol-1-yl)piperidin-1-yl)pyrrolidine-1-carboxylate], the EC50 turned out to be 1.7 nM.

For the compound `CC#CCOC(=O)N1CCC(C)(N2CCC(n3c(=O)[nH]c4ccccc43)CC2)C1` (single isomer, unassigned) [Example 34, but-2-ynyl 3-methyl-3-(4-(2-oxo-2,3-dihydro-1H-benzo[d]imidazol-1-yl)piperidin-1-yl)pyrrolidine-1-carboxylate], the EC50 turned out to be 14.7 nM.

`C#CCOC(=O)N1CCC(C)(N2CCC(n3c(=O)[nH]c4cc(F)ccc43)CC2)C1` (single isomer, unassigned) [Example 36, prop-2-ynyl 3-(4-(5-fluoro-2-oxo-2,3-dihydro-1H-benzo[d]imidazol-1-yl)piperidin-1-yl)-3-methylpyrrolidine-1-carboxylate]: the EC50 was 32 nM.

`Cc1ccc2[nH]c(=O)n(C3CCN(C4(C)CCN(C(=O)OC(C)C)C4)CC3)c2c1` (single isomer, unassigned) [Example 39, isopropyl 3-methyl-3-(4-(6-methyl-2-oxo-2,3-dihydro-1H-benzo[d]imidazol-1-yl)piperidin-1-yl)pyrrolidine-1-carboxylate]: the EC50 turned out to be 26.7 nM.

On to `Cc1ccc2[nH]c(=O)n(C3CCN(C4(C)CCN(C(=O)OC(C)C)C4)CC3)c2c1` (single isomer, unassigned) [Example 40, isopropyl 3-methyl-3-(4-(6-methyl-2-oxo-2,3-dihydro-1H-benzo[d]imidazol-1-yl)piperidin-1-yl)pyrrolidine-1-carboxylate], for which the EC50 stood at 36.3 nM.

With `C#CCOC(=O)N1CCC(C)(N2CCC(n3c(=O)[nH]c4cc(C)ccc43)CC2)C1` (single isomer, unassigned) [Example 44, prop-2-ynyl 3-methyl-3-(4-(5-methyl-2-oxo-2,3-dihydro-1H-benzo[d]imidazol-1-yl)piperidin-1-yl)pyrrolidine-1-carboxylate], the EC50 was below 2.3 nM.

Take `COC(=O)N1CCC(C)(N2CCC(n3c(=O)[nH]c4ccc(C)cc43)CC2)C1` (single isomer, unassigned) [Example 47, methyl 3-methyl-3-(4-(6-methyl-2-oxo-2,3-dihydro-1H-benzo[d]imidazol-1-yl)piperidin-1-yl)pyrrolidine-1-carboxylate]: the concentration giving a half-maximal response (EC50) is below 3.2 nM.

Consider `CCOC(=O)N1CCC(C)(N2CCC(N3C(=O)Cc4ccc(C)cc43)CC2)C1` (single isomer, unassigned) [Example 70, ethyl 3-methyl-3-(4-(6-methyl-2-oxoindolin-1-yl)piperidin-1-yl)pyrrolidine-1-carboxylate], for which the EC50 worked out at 9.8 nM.

In the case of `COC(=O)N1CCC(C)(N2CCC(N3C(=O)Cc4ccc(F)cc43)CC2)C1` (single isomer, unassigned) [Example 76, methyl 3-(4-(6-fluoro-2-oxoindolin-1-yl)piperidin-1-yl)-3-methylpyrrolidine-1-carboxylate], the EC50 stood at 40.1 nM.

With `CCOC(=O)N1CCC(C)(N2CCC(N3C(=O)Cc4cc(F)ccc43)CC2)C1` (single isomer, unassigned) [Example 80, ethyl 3-(4-(5-fluoro-2-oxoindolin-1-yl)piperidin-1-yl)-3-methylpyrrolidine-1-carboxylate], the EC50 came out at 69.4 nM.
